Tests used:
Conditions in all cases: 72 h
BV-173 [1] = assay: cell viability (% survival relative to DMSO control, bortezomib = 0%); higher = less cytotoxic
Summary of the method: (§1)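 Percent survival is reported as the mean of duplicate wells. Cells from 10 AML and 5 CML lines were plated in 384-well plates containing compounds at 1, 10, 100, 1000 or 10000 nM and kept for 72 h at 37 °C in 5% CO2. Readout used CellTiter-Glo luminescence, scaled so that vehicle equals 100% and a 10 µM positive control equals 0%.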

LAMA-84 [2] = assay: as above
Summary of the method: as §1

MV4-11 [3] = assay: as above
Summary of the method: as §1

Mono-Mac-6 [4] = assay: as above
Summary of the method: as §1

ML-2 [5] = assay: as above
Summary of the method: as §1

KCL-22 [6] = assay: as above
Summary of the method: as §1

NOMO-1 [7] = assay: as above
Summary of the method: as §1

KU-812 [8] = assay: as above
Summary of the method: as §1

THP-1 [9] = assay: as above
Summary of the method: as §1

K-562 [10] = assay: as above
Summary of the method: as §1

MOLM-13 [11] = assay: as above
Summary of the method: as §1

KG-1 [12] = assay: as above
Summary of the method: as §1

HEL [13] = assay: as above
Summary of the method: as §1

HL-60 [14] = assay: as above
Summary of the method: as §1

SHI-1 [15] = assay: as above
Summary of the method: as §1

BV-173 [16] = tested on: BV-173
Summary of the method: (§2)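 Fifteen myeloid leukaemia cell lines were seeded in RPMI 1640 at densities titrated to the linear growth range and placed in 384-well plates with acoustically pre-printed compounds at five tenfold doses from 1 to 10,000 nM, in duplicate. After 72 h at 37 °C with 5% CO2, luminescent ATP viability was normalised to vehicle and to a positive control at 10 µM, and curves were fitted with a four-parameter log-logistic model. The IC50 was obtained from these fits.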

LAMA-84 [17] = tested on: LAMA-84
Summary of the method: as §2

MV4-11 [18] = tested on: MV4-11
Summary of the method: as §2

Mono-Mac-6 [19] = tested on: Mono-Mac-6
Summary of the method: as §2

ML-2 [20] = tested on: ML-2
Summary of the method: as §2

KCL-22 [21] = tested on: KCL-22
Summary of the method: as §2

NOMO-1 [22] = tested on: NOMO-1
Summary of the method: as §2

KU-812 [23] = tested on: KU-812
Summary of the method: as §2

THP-1 [24] = tested on: THP-1
Summary of the method: as §2

K-562 [25] = tested on: K-562
Summary of the method: as §2

MOLM-13 [26] = tested on: MOLM-13
Summary of the method: as §2

KG-1 [27] = tested on: KG-1
Summary of the method: as §2

HEL [28] = tested on: HEL
Summary of the method: as §2

HL-60 [29] = tested on: HL-60
Summary of the method: as §2

SHI-1 [30] = tested on: SHI-1
Summary of the method: as §2

CN(C)CCNC(=O)c1cccn2c(=O)c3cc4ccccc4cc3nc12 [Bmh-21]
cell viability [%]
Conditions | 1 nM | 10 nM | 100 nM | 1000 nM | 10000 nM
BV-173 [1] | 105 | 98.6 | 95.8 | -0.204 | -0.415
HEL [13] | 110 | 93.8 | 93.8 | 8 | 0.459
HL-60 [14] | 102 | 108 | 93.6 | 107 | 77.7
K-562 [10] | 108 | 84.5 | 94.1 | 92.9 | 44.3
KCL-22 [6] | 115 | 113 | 98.7 | 0.317 | 0.85
KG-1 [12] | 104 | 101 | 104 | 9.79 | 0.81
KU-812 [8] | 98.1 | 105 | 108 | 15.5 | -0.163
LAMA-84 [2] | 103 | 107 | 95.2 | 21.2 | 1.47
ML-2 [5] | 111 | 106 | 99.4 | -0.0196 | -0.0121
MOLM-13 [11] | 123 | 92.6 | 102 | 87.6 | 22.1
MV4-11 [3] | 107 | 85.5 | 90.4 | 78.8 | 11.1
Mono-Mac-6 [4] | 89.8 | 101 | 106 | 0.313 | 0.0551
NOMO-1 [7] | 106 | 101 | 101 | 45.9 | -0.0945
SHI-1 [15] | 108 | 102 | 81.7 | 94 | 53.7
THP-1 [9] | 102 | 96.4 | 104 | 45.1 | -0.241

Conditions | IC50 (cell viability) [nM]
BV-173 [16] | 293
HEL [28] | 331
HL-60 [29] | > 10000
K-562 [25] | 9110
KCL-22 [21] | 312
KG-1 [27] | 407
KU-812 [23] | 479
LAMA-84 [17] | 486
ML-2 [20] | 314
MOLM-13 [26] | 2380
MV4-11 [18] | 2780
Mono-Mac-6 [19] | 347
NOMO-1 [22] | 923
SHI-1 [30] | > 10000
THP-1 [24] | 910

C=C1C(=O)O[C@H](CCCCCCCC)[C@H]1C(=O)O [C75]
cell viability [%]
Conditions | 1 nM | 10 nM | 100 nM | 1000 nM | 10000 nM
BV-173 [1] | 106 | 94 | 109 | 107 | 105
HEL [13] | 101 | 95.7 | 105 | 111 | 121
HL-60 [14] | 89.1 | 80.8 | 106 | 86 | 120
K-562 [10] | 107 | 98.3 | 101 | 108 | 111
KCL-22 [6] | 112 | 86.8 | 108 | 110 | 134
KG-1 [12] | 102 | 81.1 | 112 | 115 | 114
KU-812 [8] | 95 | 97.6 | 105 | 102 | 106
LAMA-84 [2] | 92.2 | 102 | 101 | 104 | 106
ML-2 [5] | 115 | 90.1 | 108 | 110 | 112
MOLM-13 [11] | 102 | 95.2 | 106 | 99.3 | 137
MV4-11 [3] | 106 | 98.1 | 103 | 85.9 | 116
Mono-Mac-6 [4] | 98.1 | 99.9 | 103 | 94.4 | 98.9
NOMO-1 [7] | 108 | 99.7 | 113 | 100 | 109
SHI-1 [15] | 105 | 98.5 | 108 | 100 | 100
THP-1 [9] | 111 | 94.7 | 111 | 108 | 102

Conditions | IC50 (cell viability) [nM]
BV-173 [16] | > 10000
HEL [28] | > 10000
HL-60 [29] | > 10000
K-562 [25] | > 10000
KCL-22 [21] | > 10000
KG-1 [27] | > 10000
KU-812 [23] | > 10000
LAMA-84 [17] | > 10000
ML-2 [20] | > 10000
MOLM-13 [26] | > 10000
MV4-11 [18] | > 10000
Mono-Mac-6 [19] | > 10000
NOMO-1 [22] | > 10000
SHI-1 [30] | > 10000
THP-1 [24] | > 10000

O=C(Cc1cccc(OC(F)(F)F)c1)Nc1ccc(CCCCc2nnc(NC(=O)Cc3ccccn3)s2)nn1 [CB-839]
cell viability [%]
Conditions | 1 nM | 10 nM | 100 nM | 1000 nM | 10000 nM
BV-173 [1] | 133 | 82.2 | 53.7 | 59.8 | 18.5
HEL [13] | 117 | 85.6 | 99.3 | 73.7 | 64.8
HL-60 [14] | 73.4 | 114 | 85.6 | 40.6 | 50.2
K-562 [10] | 145 | 105 | 85.3 | 86 | 77.7
KCL-22 [6] | 116 | 90.4 | 79.5 | 55.4 | 43.8
KG-1 [12] | 98.4 | 81.7 | 80.1 | 43 | 45.4
KU-812 [8] | 101 | 81.8 | 72.2 | 67.2 | 66.4
LAMA-84 [2] | 116 | 85.8 | 66.5 | 66.3 | 58.4
ML-2 [5] | 111 | 89.8 | 94.3 | 91.4 | 89.9
MOLM-13 [11] | 123 | 102 | 116 | 59.8 | 73.7
MV4-11 [3] | 108 | 86 | 71.2 | 48.1 | 51.2
Mono-Mac-6 [4] | 102 | 84.5 | 85 | 78.3 | 82
NOMO-1 [7] | 103 | 91.4 | 76.5 | 79.2 | 68.2
SHI-1 [15] | 109 | 103 | 99.7 | 74.9 | 68.4
THP-1 [9] | 99.4 | 96.7 | 88.9 | 82.9 | 83.7

Conditions | IC50 (cell viability) [nM]
BV-173 [16] | 118
HEL [28] | > 10000
HL-60 [29] | 637
K-562 [25] | > 10000
KCL-22 [21] | 822
KG-1 [27] | 638
KU-812 [23] | > 10000
LAMA-84 [17] | 9930
ML-2 [20] | > 10000
MOLM-13 [26] | > 10000
MV4-11 [18] | 619
Mono-Mac-6 [19] | > 10000
NOMO-1 [22] | > 10000
SHI-1 [30] | > 10000
THP-1 [24] | > 10000
